# Test results published in article PMC10301432, “Antiplasmodial, Trypanocidal, and Genotoxicity In Vitro Assessment of New Hybrid α,α-Difluorophenylacetamide-statin Derivatives” (Pharmaceuticals, 2023).
# Like-named read-outs stand apart in the source and are kept apart here.
# Legend:
# [1] = test system: Salmonella enterica serovar Typhimurium TA102
# [2] = test system: Salmonella enterica serovar Typhimurium TA98; test: Salmonella/microsome assay, TA98
# Description: (§1) Salmonella enterica serovar Typhimurium (S. typhimurium) strains TA97, TA98, TA100, TA104 and TA102 from the authors’ stock were used as described in the mutagenicity assay.
# (§2) To determine the cytotoxic effects, after 30 min pre-incubation, the assay mixtures were diluted in 0.9% NaCl (w/v) to obtain a suspension containing 2 × 10^2 cells/mL. […] The plates were then incubated at 37 °C for 24 h and the colonies counted. All the experiments were conducted in triplicate and were repeated at least twice. Statistical differences between the groups were analyzed by a two-way ANOVA (p < 0.05) and Tukey’s post hoc test.
# [3] = test system: trypomastigote forms of T. cruzi (Y strain); test: Trypanocidal activity on bloodstream trypomastigotes; assay type: cell-based, Trypanosoma cruzi
# Description: Bloodstream trypomastigote forms (BT) of the Y strain were obtained from infected albino Swiss mice at the peak of parasitemia, isolated by differential centrifugation and resuspended in DMEM to a parasite concentration of 10^7 cells/mL in the presence of 10% of mouse blood. This suspension (100 µL) was added in the same volume of 13 (a–d) and 14 (a–d) previously prepared at twice the desired final concentrations.
# in vitro = assay type: cell-based; conditions: mouse
# Description: Primary cultures of cardiac cells (CC) were obtained as reported in [50]. The cultures were sustained in Dulbecco’s modified Eagle’s medium (DMEM) supplemented with 10% horse serum, 5% fetal bovine serum (FBS), 2.5 mM CaCl2, 1 mM L-glutamine, and 2% chicken embryo extract. Cell cultures were maintained at 37 °C in an atmosphere of 5% CO2, and assays were run at least three times in triplicate.
# Cardiac cell cultures were incubated for 24 h at 37 °C with different concentrations of the compounds (up to 200 µM) diluted in DMEM (without phenol red). Their morphology and spontaneous contractibility were evaluated by light microscopy and then the cellular viability was determined by the PrestoBlue® assay. For this colorimetric bioassay, PrestoBlue® (Invitrogen, Waltham, MA, USA) was added to each well (using a 10:1 medium/dye), the plate was further incubated for 24 h followed by optical density (OD) measurement performed at 570 and 600 nm, as recommended by the manufacturer.
# [4] = test system: Salmonella enterica serovar Typhimurium TA104; test: Salmonella/microsome assay, TA104
# Description: as §1, §2
# [5] = Salmonella/microsome assay, TA104; conditions: Salmonella enterica serovar Typhimurium, S. typhimurium TA104 with S9 mix, LC50 (bacterial cytotoxicity) TA104, presence of S9 mix
# Description: as §1, §2
# CHO-K1 cells = assay type: cell-based, Chinese Hamster
# Description: Fresh HepG2 and CHO-K1 cells were seeded at the density of 1 × 10^5 cells/mL into 24-well plates (1 mL/per well). The compounds 13 (a–d) were then added to the medium to final concentrations of 500, 1000 and 2000 µM and incubation continued for 3 h or 24 h. DMSO 10% was used as the negative control, and, BaP (80 µM) for HepG2 and MMC (5 µM) for CHO-K1 were the positive controls. After exposure to the compounds, the cells were incubated for more than 24 h under growth conditions before quantification of the micronuclei and cytotoxicity. The cytogenetic studies were carried out in triplicate as described previously (see [51]). In order to determine the mitotic index and the number of cells with micronuclei, the medium was replaced by a cold methanol-glacial acetic acid (3:1) fixative for 30 min, and the cells then rinsed with distilled water for 2 min and air dried. The fixed cells were stained with 4,6-diamidino-2-phenylindole (DAPI) ([…]) dissolved in McIlvaine buffer (0.1 M citric acid plus 0.2 M Na2HPO4, pH 7.0) for 60 min, washed with McIlvaine buffer for 5 min, briefly rinsed with distilled water and mounted in glycerol. To determine the mitotic index and the number of cells with micronuclei, 1000 cells per well (3000 cells per concentration) were analyzed under a fluorescence microscope. The results for micronuclei were presented as the percentage of cells containing micronuclei in the 3000 cells/concentration group analyzed. Cells that glowed brightly and had homogenous nuclei were considered as having normal phenotypic morphology. Apoptotic nuclei were identified by the condensed chromatin at the periphery of the nuclear membrane or by fragmented nuclear body morphology. Necrotic cells presented chromatin forms with irregularly shaped aggregates, a pyknotic nucleus (shrunken and darkly stained) and cell membrane disruption, with cellular debris spilled into the extracellular milieu. Once again, 3000 cells were counted and the percentage of viable cells was evaluated, discounting apoptotic and necrotic cells. Statistical differences between the groups were analyzed by two-way ANOVA (p < 0.01) and Tukey’s post hoc test.
compound,measurement,setting,value
"CC(=O)Nc1ccc(Cl)cc1C(F)(F)C(=O)NCC[C@@H]1C[C@H](CC(=O)OC(C)(C)C)OC(C)(C)O1 [Compound 13c, tert-Butyl 2-((4R,6R)-6-(2-(2-(2-acetamido-5-chlorophenyl)-2,2-difluoroacetamido)ethyl)-2,2-dimethyl-1,3-dioxan-4-yl)acetate]",revertant His+ colonies TA102,"[1]; +S9, 3 µM",392 ± 8
same,revertant His+ colonies TA102,"[1]; +S9, 15 µM",390 ± 12
same,revertant His+ colonies TA102,"[1]; +S9, 30 µM",402 ± 24
same,revertant His+ colonies TA102,"[1]; +S9, 150 µM",401 ± 66
same,revertant His+ colonies TA102,"[1]; +S9, 300 µM",403 ± 12
same,revertant His+ colonies TA102,"[1]; +S9, 1500 µM",430 ± 14
same,revertant His+ colonies TA102,"[1]; −S9, 3 µM",373 ± 50
same,revertant His+ colonies TA102,"[1]; −S9, 15 µM",386 ± 35
same,revertant His+ colonies TA102,"[1]; −S9, 30 µM",387 ± 33
same,revertant His+ colonies TA102,"[1]; −S9, 150 µM",386 ± 5
same,revertant His+ colonies TA102,"[1]; −S9, 300 µM",400 ± 24
same,revertant His+ colonies TA102,"[1]; −S9, 1500 µM",450 ± 32
same,revertant His+ colonies TA98,"[2]; +S9, 3 µM",34 ± 4
same,revertant His+ colonies TA98,"[2]; +S9, 15 µM",35 ± 3
same,revertant His+ colonies TA98,"[2]; +S9, 30 µM",39 ± 3
same,revertant His+ colonies TA98,"[2]; +S9, 150 µM",37 ± 7
same,revertant His+ colonies TA98,"[2]; +S9, 300 µM",47 ± 4
same,revertant His+ colonies TA98,"[2]; +S9, 1500 µM",49 ± 5
same,revertant His+ colonies TA98,"[2]; −S9, 3 µM",21 ± 2
same,revertant His+ colonies TA98,"[2]; −S9, 15 µM",21 ± 5
same,revertant His+ colonies TA98,"[2]; −S9, 30 µM",21 ± 3
same,revertant His+ colonies TA98,"[2]; −S9, 150 µM",21 ± 2
same,revertant His+ colonies TA98,"[2]; −S9, 300 µM",21 ± 1
same,revertant His+ colonies TA98,"[2]; −S9, 1500 µM",23 ± 4
same,SI,[3]; LC50 (cardiac cells)/EC50 (trypomastigotes),>17.7
same,EC50,"[3]; Trypanosoma cruzi, bloodstream trypomastigotes, Y strain, 24 h at 37 °C",28.2 ± 0.75 µM
same,CC50 at 24 h,in vitro,> 500 µM
same,revertant His+ colonies TA104,"[4]; +S9, 3 µM",384 ± 34
same,revertant His+ colonies TA104,"[4]; +S9, 15 µM",401 ± 31
same,revertant His+ colonies TA104,"[4]; +S9, 30 µM",445 ± 49
same,revertant His+ colonies TA104,"[4]; +S9, 150 µM",305 ± 7
same,revertant His+ colonies TA104,"[4]; +S9, 300 µM",297 ± 4
same,revertant His+ colonies TA104,"[4]; +S9, 1500 µM",Cytotoxic
same,CC50,"[4]; read-out: LC50 (bacterial cytotoxicity) TA104, presence of S9 mix",> 1200 µM
same,revertant His+ colonies TA104,"[4]; −S9, 3 µM",195 ± 9
same,revertant His+ colonies TA104,"[4]; −S9, 15 µM",199 ± 7
same,revertant His+ colonies TA104,"[4]; −S9, 30 µM",192 ± 3
same,revertant His+ colonies TA104,"[4]; −S9, 150 µM",201 ± 17
same,revertant His+ colonies TA104,"[4]; −S9, 300 µM",206 ± 8
same,revertant His+ colonies TA104,"[4]; −S9, 1500 µM",241 ± 10
same,CC50 at 30 min,[5],1390 ± 14.8 µM
same,mitotic index,CHO-K1 cells,did not affect the mitotic index
